Consider 44 molecules from patent US12617773B2, “Azetidin-3-ylmethanol derivatives as CCR6 receptor modulators” (Idorsia Pharmaceuticals Ltd, priority 2020, dated 2026).

For this assay, the target named is T1, human CCR6 (Homo sapiens, UniProt P51684).
T1 construct: expressed in transfected cells; host or cells: HEK-293
T1 sequence (P51684 1-374): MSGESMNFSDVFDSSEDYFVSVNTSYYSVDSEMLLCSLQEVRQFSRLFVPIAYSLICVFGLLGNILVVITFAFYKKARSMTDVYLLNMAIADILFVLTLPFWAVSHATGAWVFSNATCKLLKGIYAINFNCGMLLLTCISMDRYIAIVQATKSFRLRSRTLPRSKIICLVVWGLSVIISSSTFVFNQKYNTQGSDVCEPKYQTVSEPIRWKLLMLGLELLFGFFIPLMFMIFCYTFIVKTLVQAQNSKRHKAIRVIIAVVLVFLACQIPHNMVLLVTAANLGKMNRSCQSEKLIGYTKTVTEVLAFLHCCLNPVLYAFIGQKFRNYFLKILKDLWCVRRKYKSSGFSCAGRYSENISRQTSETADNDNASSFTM
In words: FLIPR assay (inhibition of CCL20-induced calcium signal). In kind it is cell-based. To be noted: HEK-293 cells expressing human CCR6; mean values where determined several times; read-out: FLIPR IC50. In a few lines:
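Dye-loaded HEK-293 cells expressing human CCR6 were preincubated with compound for 30 min at room temperature in the dark, then challenged with 10 nM CCL20 (final). Fluorescence was tracked on FLIPR, and baseline-subtracted peak emission over base after agonist addition gave inhibition dose-response curves for IC50.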
A word on the IC50: it is the concentration that inhibits the measured activity by half. With `CC(C)c1ccc([C@](O)(c2cncc(CCC(O)c3ccccc3)c2)C2(C)CN(C)C2)cc1` (some centres unmarked) [Example 59], the IC50 is 7.1 nM.
For `COCC(=O)N1CCC(c2noc(-c3cncc([C@@](O)(c4ccc(C(C)C)cc4)C4(C)CN(C)C4)c3)n2)CC1` [Example 526, 1-[4-(5-{5-[(R)-(1,3-Dimethyl-azetidin-3-yl)-hydroxy-(4-isopropyl-phenyl)-methyl]-pyridin-3-yl}-[1,2,4]oxadiazol-3-yl)-piperidin-1-yl]-2-methoxy-ethanone], the IC50 was found to be 171 nM.
In the case of `COc1ccccc1C(C)(O)C#Cc1cncc([C@@](O)(c2ccc(C(C)C)cc2)C2(C)CN(C)C2)c1` (some centres unmarked) [Example 34], the concentration for half-maximal inhibition (IC50) was 21.1 nM.
Consider `COc1cc(C(C)(O)C#Cc2cncc([C@@](O)(c3ccc(C(C)C)cc3)C3(C)CN(C)C3)c2)ncn1` (single isomer, unassigned) [Example 622], for which the half-inhibitory concentration (IC50) turned out to be 105 nM.
For `CC(C)Oc1ccc(C(O)(c2cncc(N3CCCC3)c2)C2(C)CN(C)C2)cc1` (centres unmarked) [Example 158], the IC50 is 222 nM.
As to `CC(C)c1ccc([C@](O)(c2cncc(-c3noc(-c4cccnc4)n3)c2)C2(C)CN(C)C2)cc1` [Example 495], the IC50 is 20.9 nM.
As to `CC(C)c1ccc([C@](O)(c2cnnc(N3CCC(F)(F)C3)c2)C2(C)CN(C)C2)cc1` [Example 166, (R)-[6-(3,3-Difluoro-pyrrolidin-1-yl)-pyridazin-4-yl]-(1,3-dimethyl-azetidin-3-yl)-(4-isopropyl-phenyl)-methanol], the half-inhibitory concentration (IC50) is 85.3 nM.
Consider `CC(=O)N1CC[C@H](c2nc(-c3cncc([C@@](O)(c4ccc(C(C)C)cc4)C4(C)CN(C)C4)c3)no2)[C@H](C)C1` (mixture of isomers) [Example 478, 1-[cis-4-(3-{5-[(R)-(1,3-Dimethyl-azetidin-3-yl)-hydroxy-(4-isopropyl-phenyl)-methyl]-pyridin-3-yl}-[1,2,4]oxadiazol-5-yl)-3-methyl-piperidin-1-yl]-ethanone], for which the IC50 stood at 88.9 nM.
On to `CN1CC(C)([C@](O)(c2ccc(C3CC3)cc2)c2cncc(-c3nc(C4CCOCC4)no3)c2)C1` [Example 82, (R)-(4-Cyclopropyl-phenyl)-(1,3-dimethyl-azetidin-3-yl)-{5-[3-(tetrahydro-pyran-4-yl)-[1,2,4]oxadiazol-5-yl]-pyridin-3-yl}-methanol], for which the half-inhibitory concentration (IC50) came to 185 nM.
As for `CCCN1CC(C)([C@](O)(c2ccc(C(C)C)cc2)c2cncc(-c3noc(C4CCN(C(C)=O)CC4)n3)c2)C1` [Example 584], the IC50 came out at 130 nM.
Turning to `CC(=O)N1CCC(c2nc(-c3cncc([C@@](O)(c4ccc(C5CCC5)cc4)C4(C)CN(C)C4)c3)no2)CC1` [Example 558], the half-inhibitory concentration (IC50) is 84.5 nM.
As for `Cc1cc(C(C)(O)CCc2cncc(C(O)(c3ccc(C(C)C)cc3)C3(C)CN(C)C3)c2)ncn1` (centres unmarked) [Example 75], the half-inhibitory concentration (IC50) was 184 nM.
Then `CC(C)c1ccc([C@](O)(c2cncc(N3CC4(CCOCC4)CC3=O)c2)C2(C)CN(C)C2)cc1` [Example 213], with 459 nM; and `CC(C)c1ccc([C@](O)(c2cncc(CCOCc3ccccc3)c2)C2(C)CN(C)C2)cc1` [Example 326, (R)-[5-(2-Benzyloxy-ethyl)-pyridin-3-yl]-(1,3-dimethyl-azetidin-3-yl)-(4-isopropyl-phenyl)-methanol], with 83.3 nM; and `COc1cccc(C(C)(O)CCc2cc([C@@](O)(c3ccc(C(C)C)cc3)C3(C)CN(C)C3)cnn2)n1` (stereo partly drawn) [Example 419, 4-{5-[(R)-(1,3-Dimethyl-azetidin-3-yl)-hydroxy-(4-isopropyl-phenyl)-methyl]-pyridazin-3-yl}-2-(6-methoxy-pyridin-2-yl)-butan-2-ol], with 155 nM.
For `CC(C)c1ccc([C@](O)(c2cncc(N3CC(C(C)C)OC3=O)c2)C2(C)CN(C)C2)cc1` (some centres unmarked) [Example 196], the IC50 is 67.6 nM.
In the case of `CC(C)c1ccc([C@](O)(c2cncc(-c3noc(C4CNC(=O)C4)n3)c2)C2(C)CN(C)C2)cc1` (some centres unmarked) [Example 358], the half-inhibitory concentration (IC50) amounted to 131 nM.
As for `COCCCc1ccc(C(O)(c2cncc(N3CCCC3)c2)C2(C)CN(C)C2)cc1` (centres unmarked) [Example 309, (1,3-Dimethyl-azetidin-3-yl)-[4-(3-methoxy-propyl)-phenyl]-(5-pyrrolidin-1-yl-pyridin-3-yl)-methanol], the half-maximal inhibitory concentration (IC50) came to 58.6 nM.
With `CC(C)c1ccc([C@](O)(c2cncc(N3CCC(C4CCOCC4)C3=O)c2)C2(C)CN(C)C2)cc1` (some centres unmarked) [Example 214] the figure was 184 nM; with `Cc1cc(C(C)(O)C#Cc2cncc([C@@](O)(c3ccc(C(C)C)cc3)C3(C)CN(C)C3)c2)nn1C` (single isomer, unassigned) [Example 402], 88.3 nM; with `Cc1cccc(C(C)(O)C#Cc2cncc([C@@](O)(c3ccc(C(C)C)cc3)C3(C)CN(C(C)C)C3)c2)n1` (some centres unmarked) [Example 665], 40.4 nM.
With `CCc1cc([C@@](O)(c2ccc(C(C)C)cc2)C2(C)CN(C)C2)ccn1` [Example 279, (S)-(1,3-Dimethyl-azetidin-3-yl)-(2-ethyl-pyridin-4-yl)-(4-isopropyl-phenyl)-methanol] the figure was 166 nM; with `CC(=O)N1CCC(COc2cncc([C@@](O)(c3ccc(C(C)C)cc3)C3(C)CN(C)C3)c2)CC1` [Example 669, 1-(4-{5-[(R)-(1,3-Dimethyl-azetidin-3-yl)-hydroxy-(4-isopropyl-phenyl)-methyl]-pyridin-3-yloxymethyl}-piperidin-1-yl)-ethanone], 62.1 nM; with `COCCCc1cncc(C(O)(c2ccc(C(C)C)cc2)C2(C)CN(C)C2)c1` (centres unmarked) [Example 48, (1,3-Dimethyl-azetidin-3-yl)-(4-isopropyl-phenyl)-[5-(3-methoxy-propyl)-pyridin-3-yl]-methanol], 100 nM.
For the molecule `Cc1ccc(C(C)(O)C#Cc2cncc([C@@](O)(c3ccc(C(C)C)cc3)C3(C)CN(C)C3)c2)s1` (some centres unmarked) [Example 650], the concentration for half-maximal inhibition (IC50) came to 15.9 nM.
Take `CCC(O)(CCc1cncc([C@@](O)(c2ccc(C(C)C)cc2)C2(C)CN(C)C2)c1)c1ccccn1` (some centres unmarked) [Example 79]: the IC50 came to 30 nM.
Take `CN1CC(C)(C(O)(c2ccc(OC3CCC3)cc2)c2cncc(N3CCCC3)c2)C1` (centres unmarked) [Example 155]: the half-maximal inhibitory concentration (IC50) was determined as 28 nM.
As for `CCC1([C@](O)(c2ccc(OC(F)(F)F)cc2)c2cncc(C#CC(C)(O)c3cccc(C)n3)c2)CN(C)C1` (some centres unmarked) [Example 659], the IC50 was found to be 344 nM.
Turning to `CC(C)c1ccc([C@](O)(c2cncc(N3CCC[C@@H]3C)c2)C2(C)CN(C)C2)cc1` [Example 178], the IC50 was 47.5 nM.
With `CN1CC(C)([C@](O)(c2ccc(Br)cc2)c2cncc(-c3noc(C(C)(C)O)n3)c2)C1` [Example 532] the figure was 718 nM; with `CC(C)c1ccc([C@](O)(c2cncc(CCCCO)c2)C2(C)CN(C)C2)cc1` [Example 57], 349 nM.
As for `CC(C)c1ccc([C@](O)(c2cncc(CCC3CCOCC3)c2)C2(C)CN(C)C2)cc1` [Example 65], the IC50 was 44.7 nM.
In the case of `Cc1cccc(C(C)(O)C#Cc2cncc([C@@](O)(c3ccc(C4(C(F)(F)F)CC4)cc3)C3(C)CN(C)C3)c2)n1` (some centres unmarked) [Example 654], the IC50 amounted to 46.2 nM.
In the case of `CC(C)c1ccc([C@](O)(c2cnnc(Oc3ccc4c(c3)CCCO4)c2)C2(C)CN(C)C2)cc1` [Example 396], the IC50 came out at 34.4 nM.
Regarding `CN1CC(C)([C@](O)(c2ccc(C(C)(C)F)cc2)c2cncc(-c3noc(C(C)(C)O)n3)c2)C1` [Example 547], the 50% inhibitory concentration (IC50) is 797 nM.
`CC(C)c1ccc([C@](O)(c2cncc(C#C[C@]3(O)CCN(C)C3=O)c2)C2(C)CN(C)C2)cc1` [Example 609]: the IC50 was 656 nM.
Regarding `CCc1ccc(C(O)(c2cncc(N3CCCC3)c2)C2(C)CN(C)C2)cc1` (centres unmarked) [Example 152], the IC50 came to 60.2 nM.
Then `CC(C)c1ccc([C@](O)(c2cncc(-c3nc(C(C)(C)O)no3)c2)C2(C)CN(C)C2)cc1` [Example 99], with 111 nM; and `CCCS(=O)(=O)N1CCC(c2nc(-c3cncc([C@@](O)(c4ccc(C(C)C)cc4)C4(C)CN(C)C4)c3)no2)CC1` [Example 383], with 53.8 nM.
Then `CC(=O)N1CCC(O)(c2nc(-c3cncc([C@@](O)(c4ccc(C(C)C)cc4)C4(C)CN(C)C4)c3)no2)CC1` [Example 498, 1-[4-(3-{5-[(R)-(1,3-Dimethyl-azetidin-3-yl)-hydroxy-(4-isopropyl-phenyl)-methyl]-pyridin-3-yl}-[1,2,4]oxadiazol-5-yl)-4-hydroxy-piperidin-1-yl]-ethanone], with 234 nM; and `Cc1nc(-c2cncc([C@@](O)(c3ccc(C(C)C)cc3)C3(C)CN(C)C3)c2)no1` [Example 517, (R)-(1,3-Dimethyl-azetidin-3-yl)-(4-isopropyl-phenyl)-[5-(5-methyl-[1,2,4]oxadiazol-3-yl)-pyridin-3-yl]-methanol], with 63.5 nM; and `CC(C)c1ccc([C@](O)(c2cnnc(N3CC4OCCC4C3=O)c2)C2(C)CN(C)C2)cc1` (stereo partly drawn) [Example 681, 5-{5-[(R)-(1,3-Dimethyl-azetidin-3-yl)-hydroxy-(4-isopropyl-phenyl)-methyl]-pyridazin-3-yl}-hexahydro-furo[2,3-c]pyrrol-4-one], with 281 nM.
As for `COCC(=O)N1CCC(c2nc(-c3cncc([C@@](O)(c4ccc(C(C)C)cc4)C4(C)CN(C)C4)c3)no2)(C(C)C)CC1` [Example 477], the IC50 came out at 33.9 nM.
For the molecule `CC(C)c1ccc([C@](O)(c2cncc(C#CC(C)(O)c3ccn(C)n3)c2)C2(C)CN(C)C2)cc1` (single isomer, unassigned) [Example 405], the 50% inhibitory concentration (IC50) was 102 nM.
